In patent publication US7625917B2, “Thiolesters and uses thereof” (priority 1998, dated 2009):
Read-outs that look alike come from different tables or passages of the source.

Tests used:
[1] = biological target: T1, recombinant HIV-1 NCp7 protein (Human immunodeficiency virus type 1 group M subtype B, UniProt P03347); assay: Trp37 zinc finger fluorescence (zinc ejection) assay; assay type: biochemical
T1 construct: recombinant HIV-1 NCp7 protein
Experimental: Zinc finger reactivity was measured using a Zn specific fluorochrome, TSQ, N-(6-methoxy-8-quinolyl)-p-toluenesulfonamide, assay or a Trp37 zinc finger fluorescence assay. Fluorescent measurements of the Trp37 residue in the C-terminal finger of recombinant HIV-1 NCp7 protein were performed as described by Rice (1995) Science 270:1194-1197; Rice (1997) Antimicrob. Agents Chemother. 41:419-426. Measurement of Zn ejection from both fingers was measured using the Zn-selective fluorchrome probe TSQ (Molecular Probes, Eugene Oreg.) as described by Rice (1996) J. Med. Chem 39:3606-3616. […] Briefly, 50 nM NCp7 was treated with test compounds for 1 hour at RT in […] buffer containing 10% glycerol and 50 mM Tris-HCl (pH 7.5). Labeled oligomer (0.1 picomole, end labeled [^32P] was added in an equal volume of buffer containing 10% glycerol, 50 mM Tris-HCl (pH 7.5), 400 mM KCl and 40 mM MgCl2. The reaction was continued for 15 min at room temperature, and a total of […] (or ¼ of the total reaction volume) was separated on nondenaturing 4.5% polyacrylamide gels in 0.5× Tris-Borate electrophoresis buffer. NCp7-oligomer complexes were visualized by autoradiography.
Changes in the intrinsic fluorescence of aromatic protein moieties are commonly used to monitor a reaction which involves a change in protein conformation. In the present invention, fluorescence can be used to monitor the loss of metal ion from a zinc finger, e.g., the loss of zinc from a CCHC retroviral zinc finger protein, after contact with a thiolester of the invention. The intrinsic fluorescence of Trp37 in the second zinc finger of HIV-1 NC protein has been used to monitor nucleic acid binding and conformation of the zinc finger complex (see, Summers (1992) supra).
Zinc ejection is measured by the ability of compounds to chemically attack the cysteines in purified NCp7 protein resulting in a loss of fluorescence due to the. movement of the tryptophan 37 residue […] position on the protein. Zinc ejection is measured and expressed as either percent decrease in total fluorescence or decrease in relative fluorescence units per min during a 30 min assay (RFU/min). A thiolester is considered within the scope of the invention if any amount of zinc ejection is detected.

[2] = system: HIV-1RF; assay: XTT cytoprotection assay (antiviral activity); assay type: cell-based
From the text: One exemplary means to determine antiviral activity is with CEM-SS cells and virus (e.g., HIV-1RF) (MOI=0.01) using the XTT (2,3-bis[2-methoxy-4-nitro-5-sulfophenyl]-5-[(phenylamino)carbonyl]-2H-tetrazolium hydroxide) cytoprotection assay, as described by Rice (1993) PNAS 90:9721-9724, and Rice (1997) Antimicrob. Agents Chemother. 41:419-426. Briefly, cells are infected with HIV-1 RF (or other virus to be tested) in the presence of various dilutions of test compounds (thiolesters and controls). The cultures are incubated for seven days. During this time control cultures without protective compounds (i.e., compounds with anti-viral activity) replicate virus, induce syncytia, and result in about 90% cell death. The cell death is measured by XTT dye reduction. XTT is a soluble tetrazolium dye that measures mitochondrial energy output, similar to MTT. Positive controls using dextran sulfate (an attachment inhibitor) or 3′-Azido-2′-3′-dideoxythymidine, AZT (a reverse transcriptase inhibitor) are added to each assay. Individual assays are done in duplicate using a sister plate method.
Effective antiviral concentrations providing 50% cytoprotection (EC50), and cellular growth inhibitory concentrations causing 50% cytotoxicity (IC50) are calculated.

[3] = system: CEM-SS cells; assay: cells; assay type: cell-based; conditions: for cellular toxicity (in words): high test dose of 316 μM
Experimental: Agents Chemother. […] Briefly, cells are infected with HIV-1 RF (or other virus to be tested) in the presence of various dilutions of test compounds (thiolesters and controls). The cultures are incubated for seven days. […] The cell death is measured by XTT dye reduction. XTT is a soluble tetrazolium dye that measures mitochondrial energy output, similar to MTT. Positive controls using dextran sulfate (an attachment inhibitor) or 3′-Azido-2′-3′-dideoxythymidine, AZT (a reverse transcriptase inhibitor) are added to each assay. Individual assays are done in duplicate using a sister plate method.

[4] = Table 3, average decrease in relative fluorescence
[5] = read-out: EC50 (concentration inhibiting 50% virus replication)
[6] = Table 3, 50% cytotoxicity, read-out: IC50
[7] = Table 5, average decrease in relative fluorescence units over 30 min
[8] = Table 5, 50% cytotoxicity, read-out: IC50
[9] = Table 10, average decrease in relative fluorescence units over 30 min
[10] = Table 10, 50% cytotoxicity, read-out: IC50

NS(=O)(=O)c1ccc(NC(=O)CNC(=O)c2ccccc2SSc2ccccc2C(=O)NCC(=O)Nc2ccc(S(N)(=O)=O)cc2)cc1 [Compound 25 D, N,N′-(2,2′-dithiodibenzoyl)-bis-4-(glycinamido)benzenesulfonamide]
zinc finger reactivity / zinc ejection rate [1]: 7.9 RFU/min
EC50 ([2]; Table 2, read-out: EC50): 1.6 µM
IC50 ([3]; Table 2, 50% cytotoxicity, read-out: IC50): 17.6 µM

Nc1ccc(S(=O)(=O)c2ccc(NC(=O)c3ccccc3SSc3ccccc3C(=O)Nc3ccc(S(=O)(=O)c4ccc(N)cc4)cc3)cc2)cc1 [Compound 26 D]
zinc finger reactivity / zinc ejection rate [1]: 3.3 RFU/min
Zinc Finger Reactivity RFU/min [1, 4]: 3.3 RFU/min
EC50 ([2]; Table 3, read-out: EC50): 4.3 µM
EC50 [2, 5]: 4.3 µM
IC50 [3, 6]: < 316 µM

CC(=O)Nc1ccc(S(=O)(=O)c2ccc(NC(=O)c3ccccc3SSc3ccccc3C(=O)Nc3ccc(S(=O)(=O)c4ccc(NC(C)=O)cc4)cc3)cc2)cc1 [Compound 27 D]
zinc finger reactivity / zinc ejection rate [1]: 5.9 RFU/min
Zinc Finger Reactivity RFU/min [1, 4]: 5.9 RFU/min
EC50 ([2]; Table 3, read-out: EC50): 1.5 µM
EC50 [2, 5]: 1.5 µM
IC50 ([3]; read-out: toxicity / IC50): 160 µM

CC(=O)Nc1ccc(S(=O)(=O)Nc2ccc(S(=O)(=O)c3ccc(-n4sc5ccccc5c4=O)cc3)cc2)cc1 [Compound 28 BITA]
Zinc Finger Reactivity RFU/min [1, 4]: 7.9 RFU/min
EC50 ([2]; Table 3, read-out: EC50): 9.6 µM
IC50 [3, 6]: 188 µM

CC(=O)Nc1ccc(S(=O)(=O)Nc2ccc(S(=O)(=O)c3ccc(NC(=O)c4ccccc4SSc4ccccc4C(=O)Nc4ccc(S(=O)(=O)c5ccc(NS(=O)(=O)c6ccc(NC(C)=O)cc6)cc5)cc4)cc3)cc2)cc1 [Compound 28 D]
Zinc Finger Reactivity RFU/min [1, 4]: 5.9 RFU/min
EC50 ([2]; Table 3, read-out: EC50): 1 µM
IC50 [3, 6]: 12.7 µM

O=c1c2ccccc2sn1-c1ccc(S(=O)(=O)c2ccc([N+](=O)[O-])cc2)cc1 [Compound 31 BITA]
Zinc Finger Reactivity RFU/min [1, 4]: 4.1 RFU/min
antiviral activity (in words) [2]: without antiviral activity
IC50 [3, 6]: > 316 µM

O=C(Nc1ccc(S(=O)(=O)c2ccc([N+](=O)[O-])cc2)cc1)c1ccccc1SSc1ccccc1C(=O)Nc1ccc(S(=O)(=O)c2ccc([N+](=O)[O-])cc2)cc1 [Compound 31 D]
Zinc Finger Reactivity RFU/min [1, 4]: 2.9 RFU/min
EC50 increase vs compound 26 [2]: 2.6 fold
EC50 [2, 5]: 12.2 µM
IC50 [3, 6]: > 316 µM
cellular toxicity (in words) [3]: non-toxic
cellular toxicity (in words) ([3]; listed as 31): no toxicity

O=C(Nc1ccc(S(=O)(=O)c2ccc(NC(=O)c3ccccc3SSc3ccccc3C(=O)Nc3ccc(S(=O)(=O)c4ccc(NC(=O)c5ccc([N+](=O)[O-])cc5)cc4)cc3)cc2)cc1)c1ccc([N+](=O)[O-])cc1 [Compound 32 D]
Zinc Finger Reactivity RFU/min [1, 4]: 2.9 RFU/min
EC50 ([2]; Table 3, read-out: EC50): 78 µM
IC50 [3, 6]: > 316 µM

O=c1c2ccccc2sn1-c1ccc(S(=O)(=O)c2ccc(NS(=O)(=O)Cc3ccccc3[N+](=O)[O-])cc2)cc1 [Compound 34 BITA]
Zinc Finger Reactivity RFU/min [1, 4]: 2 RFU/min
antiviral activity (in words) [2]: significant antiviral activity
EC50 ([2]; Table 3, read-out: EC50): 3.2 µM
IC50 [3, 6]: 59.5 µM

O=C(Nc1ccc(S(=O)(=O)c2ccc(NS(=O)(=O)Cc3ccccc3[N+](=O)[O-])cc2)cc1)c1ccccc1SSc1ccccc1C(=O)Nc1ccc(S(=O)(=O)c2ccc(NS(=O)(=O)Cc3ccccc3[N+](=O)[O-])cc2)cc1 [Compound 34 D]
Zinc Finger Reactivity RFU/min [1, 4]: 1.5 RFU/min
antiviral activity (in words) [2]: significant antiviral activity
EC50 [2, 5]: 12.3 µM
IC50 [3, 6]: > 316 µM
cellular toxicity (in words) [3]: no toxicity

CC(=O)NS(=O)(=O)c1ccc(NC(=O)c2ccccc2NC(=O)CCCl)cc1 [Compound 37, N-[2-(3-chloro-propionamido)benzoyl]sulfacetamide]
zinc finger reactivity (in words) [1]: modest zinc finger reactivity
Zinc Finger Reactivity RFU/min [1, 7]: 2.0 RFU/min
antiviral activity (in words) [2]: neither had appreciable antiviral activity
IC50 [3, 8]: >316 µM

CC(=O)NS(=O)(=O)c1ccc(NC(=O)c2cccc(NC(=O)CCCl)c2)cc1 [Compound 38]
zinc finger reactivity (in words) [1]: modest zinc finger reactivity
Zinc Finger Reactivity RFU/min [1, 7]: 3.9 RFU/min
antiviral activity (in words) [2]: neither had appreciable antiviral activity
EC50 ([2]; Table 5, read-out: EC50): 38 µM
IC50 [3, 8]: 103 µM

CC(=O)NS(=O)(=O)c1ccc(NC(=O)c2ccccc2NC(=O)CCl)cc1 [Compound 39]
Zinc Finger Reactivity RFU/min [1, 7]: 0.3 RFU/min
antiviral activity (in words) [2]: completely inactive
IC50 [3, 8]: 202 µM

CC(=O)NS(=O)(=O)c1ccc(NC(=O)c2ccccc2SC(C)=O)cc1 [Compound 40]
Zinc Finger Reactivity RFU/min [1, 7]: 4.2 RFU/min
EC50 ([2]; Table 5, read-out: EC50): 2.8 µM
IC50 [3, 8]: 56.7 µM
IC50 ([3]; read-out: IC50 range): ~50 µM

CC(=O)NS(=O)(=O)c1ccc(NC(=O)c2ccccc2SC(=O)c2ccccc2)cc1 [Compound 41]
Zinc Finger Reactivity RFU/min [1, 7]: 2.2 RFU/min
EC50 ([2]; Table 5, read-out: EC50): 2.6 µM
IC50 [3, 8]: 45.7 µM
IC50 ([3]; read-out: IC50 range): ~50 µM

COc1ccc(C(=O)Sc2ccccc2C(=O)Nc2ccc(S(=O)(=O)NC(C)=O)cc2)cc1 [Compound 42]
Zinc Finger Reactivity RFU/min [1, 7]: 3.5 RFU/min
EC50 ([2]; Table 5, read-out: EC50): 2.8 µM
IC50 [3, 8]: 43.7 µM
IC50 ([3]; read-out: IC50 range): ~50 µM

O=C(CCCCBr)Sc1ccccc1C(=O)Nc1ccc(S(=O)(=O)c2ccc([N+](=O)[O-])cc2)cc1 [Compound 46]
Zinc Finger Reactivity RFU/min ([1]; Table 6, average decrease in relative fluorescence units over 30 min): 1 RFU/min
EC50 ([2]; Table 6, read-out: EC50 %): 1.6 µM
IC50 ([3]; Table 6, 50% cytotoxicity, read-out: IC50): 21.7 µM

CC(=O)NS(=O)(=O)c1ccc(NC(=O)c2ccccc2SC(=O)CCC[n+]2ccccc2)cc1 [Compound 54]
Zinc Finger Reactivity RFU/min [1, 9]: 2.2 RFU/min
EC50 ([2]; Table 10, read-out: EC50 %): 10.1 µM
IC50 [3, 10]: 175 µM

CC(=O)NS(=O)(=O)c1ccc(NC(=O)c2ccccc2SC(=O)CCCCC[n+]2ccccc2)cc1 [Compound 55]
Zinc Finger Reactivity RFU/min [1, 9]: 1.9 RFU/min
EC50 ([2]; Table 10, read-out: EC50 %): 10.5 µM
IC50 [3, 10]: 69.7 µM

CC(=O)NS(=O)(=O)c1ccc(NC(=O)c2ccccc2NC(=O)CCCC[n+]2ccccc2)cc1 [Compound 56]
Zinc Finger Reactivity RFU/min [1, 9]: 2.6 RFU/min
antiviral activity (in words) [2]: inactive
IC50 [3, 10]: >316 µM

CC(=O)NS(=O)(=O)c1ccc(NC(=O)c2ccccc2SC(=O)CCCC[n+]2cccc(Cl)c2)cc1 [Compound 57]
Zinc Finger Reactivity RFU/min [1, 9]: 0.2 RFU/min
EC50 ([2]; Table 10, read-out: EC50 %): 54 µM
IC50 [3, 10]: 264 µM
